From patent US11554131B2, “Mixture of HMOs for treating autoimmune diseases” (Glycom A/S, priority 2018, dated 2023) come the findings set out here.

The test system of test [1] is non-obese diabetic (NOD) mouse model of diabetes and Sjögren's Syndrome. Nature of the test: NOD mouse model: histology of salivary and lacrimal glands and pancreas. In kind it is in vivo. The conditions noted are these: NOD mice, drinking water, 12 weeks, compared to control mice; for inflammation of the salivary and lacrimal glands (exocrine glands): corresponding to a human dose of about 10 g/day. From the text: The anti-inflammatory effect of HMOs is investigated in the non-obese diabetic (NOD) mouse model of diabetes and Sjögren's Syndrome.
(§1) The mice are divided into four groups (n=8) with a control group receiving standard tap water, and the three treatment groups receiving supplementation with 2′-FL, mixture of 2′-FL and DFL (in a 4:1 ratio by weight), or 6′-SL in the drinking water, corresponding to a human daily dose of about 10 grams (calculated by metabolic rate and daily water consumption of NOD mice strains).
(§2) The mice receive the treatment for 12 weeks with bi-weekly water changes. From 12 weeks of age, the blood-glucose levels of the mice are checked weekly. Mice with blood-glucose levels above 7 mmol/l are closely monitored and euthanised (and excluded from the study) if their blood glucose levels increase to ≥12 mmol/l on two consecutive measurements.
(§3) After 12 weeks treatment the mice are euthanised, and the following are sampled; serum, pancreas, salivary glands, Haarderian lacrimal glands, extraorbital lacrimal glands, as well as caecum and colon content.
The salivary and lacrimal glands are analysed by measuring the total area of inflammatory foci in relation to the total gland size on eight (salivary glands) and two (lacrimal glands) haematoxylin and eosin-stained paraffin-embedded sections per mouse. The pancreas is similarly analysed using histological sections scoring a minimum of 25 (preferably 50) islets of Langerhans for the degree of insulitis with a score ranging from 0-3 (0=no insulitis, 1=peri-insulitis, 2=infiltratory insulitis compromising ≤50% of the islet, 3=infiltratory insulitis compromising ≥50% of the islet).

A short description of test [2]: NOD mouse model: short chain fatty acids in caecum content and serum. Type of test: in vivo. The settings on record: NOD mice, 12 weeks; for acetate concentration in serum: compared to control animals.
Description: as §1, §2, §3
Caecum content and serum are used to measure the concentration of short chain fatty acids, namely acetate, propionate and butyrate. Faecal samples obtained at baseline together with colon content sampled after euthanasia are used for 16S rRNA genomic sequencing of the microbiota.

Turning to 2′-fucosyllactose [2′-FL], in test [1], the “insulitis of the pancreas” value is recorded as “reduced”; the “inflammation of the salivary and lacrimal glands (exocrine glands)” value is recorded as “reduce”. Besides, the “acetate concentration in serum” value in test [2] was “increases”.

On to `CC(=O)N[C@H]1[C@H]([C@H](O)[C@H](O)CO)O[C@@](OC[C@H]2O[C@@H](O[C@H]3[C@H](O)[C@@H](O)[C@H](O)O[C@@H]3CO)[C@H](O)[C@@H](O)[C@H]2O)(C(=O)O)C[C@@H]1O` [6′-SL, 6′-sialyllactose], for which, in test [1], the “insulitis of the pancreas” value is on record as “reduced”; the “inflammation of the salivary and lacrimal glands (exocrine glands)” value is “reduce”. Besides, in test [2], the “acetate concentration in caecum” value is “increase”, the “concentration of caecum butyrate” value is given as “increase” and the “acetate concentration in serum” value was “increase”.
